Measured values from patent US20070248599A1 (priority 2006, published 2007).

Columns and labels:
N2a-APPsw cells [1] = assay: Cellular Aβ production in N2a-APPsw cells (Aβ40 ELISA of conditioned medium); type: cell-based, mouse; conditions: recombinant ApoE forms at 10 μg/ml, N2a-APPsw cells (FIG. 5B)
Protocol: Quantification of β-Amyloid40, Neuro-2a cell stably overexpressing APPsw695 was used for detecting of β-Amyloid40. N2a-APPsw cells were grown in Dulbecco's Modified Eagle's medium (DMED) containing 10% fetal bovine serum, 100 U/mL penicillin, and 100 μg/mL streptomycin (GibcoBUR) with 80 μg/mL G418. Cells were cultured in 24-well plates one day before treatment. Transient transfections were done using FeGENE6 (Roche), fresh Optimum medium (Invitrogen) were supplied 5 h after transfection. Same concentration purified Apolipoprotein was added into the fresh medium. Conditioned medium was collected 24 h later. Aβ40 was quantified with sandwich ELISA by using Aβ40 ELISA Kit (Biosource). At least three times assays were done for each condition.
Cellular Aβ40 production. Neuroblastoma N2a-APPsw cells (from Dr. Riqiang Yan, Lerner Research Institute, Cleveland, Ohio) were cultured in 24-well plates in Dulbecco's Modified Eagle's medium (DMED) containing 10% fetal bovine serum, 100 U/mL penicillin, and 100 μg/mL streptomycin (GibcoBUR) with 80 μg/mL G418 one day before use. Transient transfections were done using FeGENE6 (Roche), fresh Optimum medium (Invitrogen) were supplied 5 h after transfection. Apolipoproteins were added in the fresh medium at 10 μg/mL. Conditioned medium was collected 24 h later. Aβ40 was determined in tripcates using Aβ40 ELISA Kit (Biosource). For studying the effect of PTB domain on Aβ production, N2a-APPsw cells were transfected with (0.4 μg/per well for 24 well plate) of PTB-containing vector before subjected to the above procedure.

N2a-APPsw cells [2] = assay: as above; type: cell-based, mouse; conditions: each at 5 μg/mL, 24 h, N2a-APPsw cells (FIG. 5B legend)
[3] = target: T1, human LRP (LDL receptor related protein) (human, UniProt Q07954 20-4544); assay: co-IP from HEK293 lysate, Western blot
T1 construct: whole, on cells; Expressed in HEK293 cells in place of ApoER2 and assayed in lysate
Protocol: KPI is a Kunitz protease inhibitor domain. In ApoER2, the alternative spliced 59-residue insertion is shown in blue. […] Experimental conditions same as in FIG. 7A.
Co-immunoprecipitation and Western Blot Assays. […] 36 h after transfection, cells were harvested and lysed on ice in lysis buffer (PBS, pH 7.4 with 1% NP-40 and 1% Saponin with protease inhibitors cocktail (Roche)). Cell lysates were cleared by centrifugation and immunoprecipitated with indicated antibody for 4 h at 4° C. Immune complexes were isolated using protein G-agarose beads (Sigma) and subjected to SDS-PAGE and Western blotting using specific antibodies.

T1 sequence (Q07954 20-4544): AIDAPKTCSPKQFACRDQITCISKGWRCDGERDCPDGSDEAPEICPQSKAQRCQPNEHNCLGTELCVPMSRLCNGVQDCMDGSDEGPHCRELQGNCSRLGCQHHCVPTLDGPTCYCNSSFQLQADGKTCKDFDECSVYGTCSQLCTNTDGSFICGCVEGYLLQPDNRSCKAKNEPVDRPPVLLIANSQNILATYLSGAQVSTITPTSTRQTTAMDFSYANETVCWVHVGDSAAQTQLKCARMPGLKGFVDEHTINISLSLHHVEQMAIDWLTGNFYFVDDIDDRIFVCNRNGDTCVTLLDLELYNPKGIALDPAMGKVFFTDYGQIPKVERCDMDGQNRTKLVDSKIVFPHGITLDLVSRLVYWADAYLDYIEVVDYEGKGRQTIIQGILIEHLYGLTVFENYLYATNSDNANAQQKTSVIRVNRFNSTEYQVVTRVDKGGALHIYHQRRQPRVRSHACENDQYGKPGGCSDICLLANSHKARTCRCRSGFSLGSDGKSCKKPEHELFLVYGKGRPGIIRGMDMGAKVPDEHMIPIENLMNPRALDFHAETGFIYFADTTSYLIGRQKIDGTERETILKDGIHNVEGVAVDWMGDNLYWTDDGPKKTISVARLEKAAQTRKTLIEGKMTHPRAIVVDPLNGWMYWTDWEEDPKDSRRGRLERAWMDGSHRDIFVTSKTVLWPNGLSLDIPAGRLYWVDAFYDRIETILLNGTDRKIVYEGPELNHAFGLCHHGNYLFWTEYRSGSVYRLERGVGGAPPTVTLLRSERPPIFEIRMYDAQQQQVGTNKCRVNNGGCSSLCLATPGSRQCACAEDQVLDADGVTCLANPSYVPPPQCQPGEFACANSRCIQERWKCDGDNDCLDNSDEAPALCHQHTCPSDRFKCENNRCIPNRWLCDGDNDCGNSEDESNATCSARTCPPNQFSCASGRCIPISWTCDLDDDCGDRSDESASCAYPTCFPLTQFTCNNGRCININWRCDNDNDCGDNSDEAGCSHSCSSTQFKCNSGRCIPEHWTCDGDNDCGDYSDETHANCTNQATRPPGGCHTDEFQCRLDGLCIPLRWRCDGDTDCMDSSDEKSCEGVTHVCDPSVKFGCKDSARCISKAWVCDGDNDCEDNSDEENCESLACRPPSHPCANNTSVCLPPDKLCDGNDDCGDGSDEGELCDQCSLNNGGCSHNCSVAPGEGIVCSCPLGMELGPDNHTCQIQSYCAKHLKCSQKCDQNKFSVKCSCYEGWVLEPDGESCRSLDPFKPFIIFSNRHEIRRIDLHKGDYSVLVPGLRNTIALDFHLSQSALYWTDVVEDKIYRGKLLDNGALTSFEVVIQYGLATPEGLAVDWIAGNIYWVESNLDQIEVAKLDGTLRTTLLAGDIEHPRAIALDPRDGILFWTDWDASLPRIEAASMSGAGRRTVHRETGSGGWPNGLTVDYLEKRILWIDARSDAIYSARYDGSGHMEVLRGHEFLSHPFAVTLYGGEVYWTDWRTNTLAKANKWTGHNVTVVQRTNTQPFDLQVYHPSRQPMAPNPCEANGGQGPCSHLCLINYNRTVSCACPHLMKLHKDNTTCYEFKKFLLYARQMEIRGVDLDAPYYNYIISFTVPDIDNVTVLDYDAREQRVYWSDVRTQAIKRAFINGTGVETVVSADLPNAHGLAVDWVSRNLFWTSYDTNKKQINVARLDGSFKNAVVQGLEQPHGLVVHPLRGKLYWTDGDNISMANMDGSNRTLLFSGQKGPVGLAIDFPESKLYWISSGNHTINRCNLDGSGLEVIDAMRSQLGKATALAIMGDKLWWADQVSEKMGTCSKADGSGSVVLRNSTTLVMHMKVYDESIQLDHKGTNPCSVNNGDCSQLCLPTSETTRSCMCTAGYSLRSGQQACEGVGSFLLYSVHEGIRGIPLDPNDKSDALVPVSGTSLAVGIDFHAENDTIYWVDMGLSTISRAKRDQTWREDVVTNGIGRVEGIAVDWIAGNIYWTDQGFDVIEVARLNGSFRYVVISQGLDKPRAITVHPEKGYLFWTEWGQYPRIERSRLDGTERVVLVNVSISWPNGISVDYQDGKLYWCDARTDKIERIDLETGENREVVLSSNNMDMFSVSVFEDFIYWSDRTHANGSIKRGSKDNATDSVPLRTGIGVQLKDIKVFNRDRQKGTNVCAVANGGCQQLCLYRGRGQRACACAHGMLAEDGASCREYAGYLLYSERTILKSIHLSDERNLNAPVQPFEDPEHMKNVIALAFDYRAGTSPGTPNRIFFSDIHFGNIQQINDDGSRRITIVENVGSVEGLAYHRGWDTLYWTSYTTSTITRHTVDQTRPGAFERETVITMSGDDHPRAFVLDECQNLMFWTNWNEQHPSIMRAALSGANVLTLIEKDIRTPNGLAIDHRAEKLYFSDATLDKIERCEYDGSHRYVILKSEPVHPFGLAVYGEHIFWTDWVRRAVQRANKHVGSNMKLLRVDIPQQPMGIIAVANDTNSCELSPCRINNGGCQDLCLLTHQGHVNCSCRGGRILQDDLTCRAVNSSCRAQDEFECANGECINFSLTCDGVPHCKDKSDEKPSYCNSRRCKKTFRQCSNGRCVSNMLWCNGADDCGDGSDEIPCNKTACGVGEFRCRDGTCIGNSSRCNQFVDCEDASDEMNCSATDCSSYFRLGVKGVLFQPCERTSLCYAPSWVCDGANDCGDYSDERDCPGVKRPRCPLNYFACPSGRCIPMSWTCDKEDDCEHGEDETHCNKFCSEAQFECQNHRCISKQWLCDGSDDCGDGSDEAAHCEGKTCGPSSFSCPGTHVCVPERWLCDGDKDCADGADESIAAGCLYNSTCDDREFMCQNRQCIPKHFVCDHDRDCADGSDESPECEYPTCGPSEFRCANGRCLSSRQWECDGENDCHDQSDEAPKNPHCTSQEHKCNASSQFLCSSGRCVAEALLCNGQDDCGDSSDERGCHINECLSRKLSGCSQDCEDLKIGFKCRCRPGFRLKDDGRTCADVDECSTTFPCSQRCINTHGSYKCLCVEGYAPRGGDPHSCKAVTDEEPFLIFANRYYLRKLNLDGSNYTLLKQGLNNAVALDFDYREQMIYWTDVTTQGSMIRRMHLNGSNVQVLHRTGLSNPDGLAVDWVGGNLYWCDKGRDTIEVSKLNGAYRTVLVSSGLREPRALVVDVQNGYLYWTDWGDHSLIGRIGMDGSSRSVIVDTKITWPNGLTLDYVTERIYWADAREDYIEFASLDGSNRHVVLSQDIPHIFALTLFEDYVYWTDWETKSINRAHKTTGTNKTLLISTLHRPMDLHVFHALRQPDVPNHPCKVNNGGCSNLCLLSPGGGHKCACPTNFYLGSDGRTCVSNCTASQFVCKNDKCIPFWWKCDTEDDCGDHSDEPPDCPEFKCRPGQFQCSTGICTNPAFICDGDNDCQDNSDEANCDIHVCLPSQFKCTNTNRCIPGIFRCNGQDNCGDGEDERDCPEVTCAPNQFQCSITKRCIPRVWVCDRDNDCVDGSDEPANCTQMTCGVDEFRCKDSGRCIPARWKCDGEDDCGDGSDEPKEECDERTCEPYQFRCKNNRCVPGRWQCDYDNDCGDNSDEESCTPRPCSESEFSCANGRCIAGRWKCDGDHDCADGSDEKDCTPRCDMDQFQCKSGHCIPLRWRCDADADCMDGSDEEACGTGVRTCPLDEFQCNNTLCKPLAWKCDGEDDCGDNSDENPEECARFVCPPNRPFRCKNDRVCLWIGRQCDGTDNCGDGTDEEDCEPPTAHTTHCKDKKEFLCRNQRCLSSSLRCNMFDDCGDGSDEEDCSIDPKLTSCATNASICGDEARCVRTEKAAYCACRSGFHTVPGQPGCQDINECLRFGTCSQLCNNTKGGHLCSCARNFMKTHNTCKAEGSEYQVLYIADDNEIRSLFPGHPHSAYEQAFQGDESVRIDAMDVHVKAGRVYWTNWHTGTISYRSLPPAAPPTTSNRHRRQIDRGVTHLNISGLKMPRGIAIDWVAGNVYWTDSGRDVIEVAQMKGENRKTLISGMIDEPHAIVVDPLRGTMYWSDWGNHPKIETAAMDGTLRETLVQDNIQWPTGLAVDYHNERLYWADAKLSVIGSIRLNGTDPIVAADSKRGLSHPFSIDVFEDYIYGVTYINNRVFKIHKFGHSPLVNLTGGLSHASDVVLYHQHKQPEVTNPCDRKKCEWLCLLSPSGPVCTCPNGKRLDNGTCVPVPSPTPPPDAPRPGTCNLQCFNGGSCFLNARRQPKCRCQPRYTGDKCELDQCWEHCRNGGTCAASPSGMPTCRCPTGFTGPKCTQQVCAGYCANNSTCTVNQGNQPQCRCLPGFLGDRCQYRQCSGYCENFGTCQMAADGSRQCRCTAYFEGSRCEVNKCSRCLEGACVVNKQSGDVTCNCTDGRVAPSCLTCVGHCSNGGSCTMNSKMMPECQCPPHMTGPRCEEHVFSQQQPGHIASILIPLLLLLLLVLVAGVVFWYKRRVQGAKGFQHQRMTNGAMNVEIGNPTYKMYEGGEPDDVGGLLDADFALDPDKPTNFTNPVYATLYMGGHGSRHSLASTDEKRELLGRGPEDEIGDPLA

binding result [3] | Molecule | Aβ production (N2a-APPsw cells [1]) | Aβ production (N2a-APPsw cells [2])
 | ApoE2: recombinant ApoE isoform with cysteine at residue 158, from Alpha Diagnostic | increased Aβ production | increased Aβ production
 | ApoE3: recombinant ApoE isoform, the reference sequence, from Alpha Diagnostic | increased Aβ production | increased Aβ production
no binding | PTB domain of X11α (residue 457-751) expressed from pcDNA6 (other, Expressed in cells from pcDNA6; also called separately expressed PTB domain of X11α) DGIIFAANYLGSTQLLSDKTPSKNVRMMQAQEAVSRIKMAQKLAKSRKKAPEGESQPMTEVDLFISTQRIKVLNADTQETMMDHPLRTISYIADIGNIVVLMARRRMPRSNSQENVEASHPSQDGKRQYKMICHVFESEDAQLIAQSIGQAFSVAYQEFLRANGINPEDLSQKEYSDLLNTQDMYNDDLIHFSKSENCKDVFIEKQKGEILGVVIVESGWGSILPTVIIANMMHGGPAEKSGKLNIGDQIMSINGTSLVGLPLSTCQSIIKGLKNQSRVKLNIVRCPPVTTVLIR |  | 
no binding | human X11α (other, Adaptor protein expressed from a cDNA vector in HEK293 cells and assayed in lysate; the vector came from an outside laboratory; also called X11α/β) MNHLEGSAEVEVTDEAAGGEVNESVEADLEHPEVEEEQQQPPQQQHYVGRHQRGRALEDLRAQLGQEEEERGECLARSASTESGFHNHTDTAEGDVIAAARDGYDAERAQDPEDESAYAVQYRPEAEEYTEQAEAEHAEATHRRALPNHLHFHSLEHEEAMNAAYSGYVYTHRLFHRGEDEPYSEPYADYGGLQEHVYEEIGDAPELDARDGLRLYEQERDEAAAYRQEALGARLHHYDERSDGESDSPEKEAEFAPYPRMDSYEQEEDIDQIVAEVKQSMSSQSLDKAAEDMPEAEQDLERPPTPAGGRPDSPGLQAPAGQQRAVGPAGGGEAGQRYSKEKRDAISLAIKDIKEAIEEVKTRTIRSPYTPDEPKEPIWVMRQDISPTRDCDDQRPMDGDSPSPGSSSPLGAESSSTSLHPSDPVEASTNKESRKSLASFPTYVEVPGPCDPEDLIDGIIFAANYLGSTQLLSDKTPSKNVRMMQAQEAVSRIKMAQKLAKSRKKAPEGESQPMTEVDLFISTQRIKVLNADTQETMMDHPLRTISYIADIGNIVVLMARRRMPRSNSQENVEASHPSQDGKRQYKMICHVFESEDAQLIAQSIGQAFSVAYQEFLRANGINPEDLSQKEYSDLLNTQDMYNDDLIHFSKSENCKDVFIEKQKGEILGVVIVESGWGSILPTVIIANMMHGGPAEKSGKLNIGDQIMSINGTSLVGLPLSTCQSIIKGLKNQSRVKLNIVRCPPVTTVLIRRPDLRYQLGFSVQNGIICSLMRGGIAERGGVRVGHRIIEINGQSVVATPHEKIVHILSNAVGEIHMKTMPAAMYRLLTAQEQPVYI |  | 
